According to patent US10563267B2, “Polymorphism biomarkers predict clinical outcomes of cancer patients receiving regorafenib” (University of Southern California, priority 2016, dated 2020):

Experiments:
cancer patients [1] = assay: Hand foot skin reaction (HFSR) in cancer patients receiving regorafenib, by ethnicity; type: in vivo, human
Experimental: HFSR of grade 3-4 are among the most common grade 3-4 […] reactions associated with a therapy with regorafenib or an equivalent thereof. In this example, single nucleotide polymorphisms (SNPs) of CCL5 were evaluated for their ability to predict the likelihood for a patient to experience HFSR from a therapy comprising an effective amount of regorafenib or an equivalent thereof.
Genomic DNA was obtained from more than 200 cancer patients receiving regorafenib and analyzed by using PCR-based direct sequencing. SNPs in CCL5 were tested to discover that the rarity (<1%) of the genotype of (G/G) for the rs2280789 polymorphism and/or the rs3817655 polymorphism (the genotype of (G/G) for the rs2280789 polymorphism and/or the rs3817655 are seen in 10% in Asian (Japanese) and 1% in Caucasian (Italian)) relates to the significant ethnic difference in severe HFSR developed by Caucasian patients compared to Japanese patients (grade 3 HFSR 16% vs 33.8% respectively, p=0.003).

cancer patients [2] = assay: Clinical outcome (OS, PFS, tumor response) of cancer patients treated with regorafenib, by SNP genotype; type: in vivo, human
Experimental: Further, single nucleotide polymorphisms (SNPs) of genes involved in various angiogenic pathways were evaluated for their ability to predict clinical outcomes for cancer patient treated with a therapy comprising regorafenib or an equivalent thereof.
Still further, combinations of single nucleotide polymorphisms (SNPs) of genes involved in various angiogenic pathways were evaluated for their ability to predict clinical outcomes for cancer patient treated with a therapy comprising regorafenib or an equivalent thereof.
Genomic DNA was obtained from cancer patients in therapies comprising regorafenib or an equivalent thereof and analyzed by using PCR-based direct sequencing. Multiple functional SNPs in 11 genes (NOTCH1, IL8, CCL5, DLL4, PLGF, ANG2, TIE1, PDGFRB, VEGFR2, EGFC and VEGFA) were tested.
PCR and product sequencing were done using standard procedures. Uni- and multivariate analyses, adjusting for age, gender, rash and racial background, were carried out.

[3] = VEGFR2 rs2071559 A/Variant + NOTCH1 rs3125001 C/C + ANG2 rs2916702 A/Variant carriers
[4] = VEGFR2 rs2071559 A/Variant + NOTCH1 rs3125001 C/C + ANG2 rs2916702 G/G carriers
[5] = VEGFR2 rs2071559 A/Variant + NOTCH1 rs3125001 T/Variant carriers
[6] = VEGFR2 rs2071559 A/variant carriers (N=111)

CNC(=O)c1cc(Oc2ccc(NC(=O)Nc3ccc(Cl)c(C(F)(F)F)c3)c(F)c2)ccn1 [regorafenib]
grade 3 HFSR (cancer patients [1]; Caucasian (Italian) patients receiving regorafenib): 16% | grade 3 HFSR (cancer patients [1]; Japanese patients receiving regorafenib): 33.8% | HR for OS (cancer patients [2]; TIE1 A/A + Plgf C/C vs TIE1 G/Variant carriers (HR reference), multivariate): 0.22 | HR for OS (cancer patients [2]; TIE1 A/A + Plgf T/Variant vs TIE1 G/Variant carriers (HR reference), multivariate): 0.79 | median OS (cancer patients [2]; TIE1 rs7527092 A/A (N=41)): 4.7 months | median OS (cancer patients [2]; TIE1 rs7527092 A/A + Plgf rs2268614 C/C carriers (N=9)): 2.6 months | median OS (cancer patients [2]; TIE1 rs7527092 A/A + Plgf rs2268614 T/Variant carriers (N=32)): 5.8 months | HR for OS (cancer patients [2]; TIE1 rs7527092 A/A vs G/variant carriers, multivariate, p=0.0063): 1.72 | HR for OS (cancer patients [2]; TIE1 rs7527092 A/A vs G/variant carriers, univariate, p=0.0303): 1.49 | median OS (cancer patients [2]; TIE1 rs7527092 G/Variant carriers (N=109)): 7.8 months | median OS (cancer patients [2]; TIE1 rs7527092 G/variant carriers (N=106)): 7.8 months | patients non-responsive (tumor response) (cancer patients [2]; [3]): 7 | patients responsive (tumor response) (cancer patients [2]; [3]): 16 | patients non-responsive (tumor response) (cancer patients [2]; [4]): 6 | patients responsive (tumor response) (cancer patients [2]; [4]): 2 | patients non-responsive (tumor response) (cancer patients [2]; [5]): 49 | patients responsive (tumor response) (cancer patients [2]; [5]): 25 | median OS (cancer patients [2]; [6]): 7.0 months | median PFS (cancer patients [2]; [6]): 2.3 months | response (positive) (cancer patients [2]; [6]): 41% | median OS (cancer patients [2]; VEGFR2 rs2071559 G/G (N=39)): 4.7 months | median PFS (cancer patients [2]; VEGFR2 rs2071559 G/G (N=39)): 1.8 months | response (positive) (cancer patients [2]; VEGFR2 rs2071559 G/G (N=39)): 18% | patients non-responsive (tumor response) (cancer patients [2]; VEGFR2 rs2071559 G/G carriers): 31 | patients responsive (tumor response) (cancer patients [2]; VEGFR2 rs2071559 G/G carriers): 7 | HR for PFS (cancer patients [2]; VEGFR2 rs2071559 G/G vs A/variant carriers, multivariate, p=0.0197): 1.59 | HR for PFS (cancer patients [2]; VEGFR2 rs2071559 G/G vs A/variant carriers, univariate, p=0.0250): 1.49 | HR for OS (cancer patients [2]; VEGFR2 rs2071559 G/G vs A/variant carriers, univariate, p=0.0452): 1.45 | median PFS (cancer patients [2]; high-risk group: VEGFR2 rs2071559 G/G + NOTCH1 rs6563 A/A (N=15) together with G/G + NOTCH1 G/Variant + ANG2 rs2442599 A/A (N=11)): 1.7 months | median PFS (cancer patients [2]; low-risk group: VEGFR2 rs2071559 A/variant (N=111) together with G/G + NOTCH1 rs6563 G/Variant + ANG2 rs2442599 G/Variant (N=13)): 2.3 months | HR for PFS (cancer patients [2]; tree model high-risk vs low-risk group (VEGFR2/NOTCH1/ANG2), multivariate, log-rank P<0.001): 0.41
